The target in the experiment is T1, human muscarinic M3 receptor (Homo sapiens, UniProt P20309).
T1 construct: expressed in transfected cells
Kind of experiment: hM3 β-Lac potency assay (NFAT-Betalactamase reporter in CHO-K1 cells). The settings on record: CHO cells recombinantly expressing human M3, NFAT β-lactamase reporter; inhibition of 80 nM carbamyl choline signal, 4 h; IC50 converted to Ki by Cheng-Prusoff; read-out: Cell based β-lactamase M3 Ki. On the procedure:
M3 potency was determined in CHO-K1 cells transfected with the NFAT-Betalactamase gene. CHO (Chinese Hamster Ovary) cells recombinantly expressing the human muscarinic M3 receptor were transfected with the NFAT_β-Lac_Zeo plasmid. Cells were grown in DMEM with Glutamax-1, supplemented with 25 mM HEPES(Life Technologies 32430-027), containing 10% FCS (Foetal Calf Serum; Sigma F-7524), […] Sodium pyruvate (Sigma S-8636), NEM (non-Essential Amino Acids; Invitrogen 11140-035) and 200 μg/ml Zeocin (Invitrogen R250-01).
Cells were harvested for assay when they reached 80-90% confluency using enzyme free cell Dissociation Solution (Life technologies 13151-014) incubated with the cells for 5 min at 37° C. in an atmosphere containing 5% CO2. Detached cells were collected in warmed growth media and centrifuged at 2000 rpm for 10 min, washed in PBS (Phosphate Buffered Saline; Life Technologies 14190-094) and centrifuged again as just described. The cells were re-suspended at 2×10^5 cells/ml in growth medium (composition as described above). 20 μl of this cell suspension was added to each well of a 384 well black clear bottomed plate (Greiner Bio One 781091-PFI). The assay buffer used was PBS supplemented with 0.05% Pluronic F-127 (Sigma 9003-11-6) and 2.5% DMSO. Muscarinic M3 receptor signalling was stimulated using 80 nM carbamyl choline (Aldrich N240-9) incubated with the cells for 4 h at 37° C./5% CO2 and monitored at the end of the incubation period using a Tecan SpectraFluor+ plate reader (λ—excitation 405 nm, emission 450 nm and 503 nm). M3 receptor antagonists under test were added to the assay at the beginning of the 4 h incubation period and compound activity measured as the concentration dependent inhibition of the carbamyl choline induced signal. Inhibition curves were plotted and IC50 values generated using a 4-parameter sigmoid fit and converted to Ki values using the Cheng-Prusoff correction and the KD value for carbamyl choline in the assay.

T1 sequence (P20309 whole entry): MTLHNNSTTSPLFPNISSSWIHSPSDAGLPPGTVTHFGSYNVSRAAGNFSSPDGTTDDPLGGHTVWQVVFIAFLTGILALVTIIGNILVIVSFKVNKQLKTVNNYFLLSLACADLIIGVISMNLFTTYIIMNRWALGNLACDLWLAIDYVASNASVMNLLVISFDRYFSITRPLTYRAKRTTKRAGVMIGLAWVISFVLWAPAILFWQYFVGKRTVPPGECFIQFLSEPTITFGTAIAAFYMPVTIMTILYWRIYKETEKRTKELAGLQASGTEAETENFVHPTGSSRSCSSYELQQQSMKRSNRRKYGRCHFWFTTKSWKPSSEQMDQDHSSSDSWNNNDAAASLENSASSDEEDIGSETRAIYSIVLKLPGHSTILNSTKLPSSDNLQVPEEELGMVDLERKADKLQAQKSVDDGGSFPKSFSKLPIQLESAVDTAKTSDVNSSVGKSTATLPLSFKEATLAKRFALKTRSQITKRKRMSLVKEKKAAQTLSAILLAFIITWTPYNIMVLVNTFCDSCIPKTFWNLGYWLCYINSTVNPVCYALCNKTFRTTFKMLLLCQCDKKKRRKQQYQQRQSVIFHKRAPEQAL

For `CC(C)N(CC[C@H](c1ccccc1)c1cc(CCOc2ccc(CCNC(=O)c3cc(Cl)c(O)c(Cl)c3)cc2)ccc1O)C(C)C` [Example 24, 3,5-Dichloro-N-[2-(4-{2-[3-((1R)-3-diisopropylamino-1-phenyl-propyl)-4-hydroxy-phenyl]-ethoxy}-phenyl)-ethyl]-4-hydroxy-benzamide], the Ki worked out at 2.15 nM.

As for `CC(C)N(CC[C@H](c1ccccc1)c1cc(CCOc2ccc(CCNC(=O)C3CCCC3)cc2)ccc1O)C(C)C` [Example 3, Cyclopentanecarboxylic acid [2-(4-{2-[3-((1R)-3-diisopropylamino-1-phenyl-propyl)-4-hydroxy-phenyl]-ethoxy}-phenyl)-ethyl]-amide], the Ki is 3.59 nM.

Source of the values: patent publication US20090076152A1, “Novel Compounds Active as Muscarinic Receptor Antagonists” (priority 2007, published 2009).
